Laboratory results taken from patent publication US20220088004A1, “COMPOSITION FOR COMPETITIVE INHIBITION OF OREXIN RECEPTORS” (SUNTORY HOLDINGS LIMITED, priority 2019, published 2022).

How the values were obtained:
orexin receptor [1] = conditions: injection; amyloid precursor protein transgenic mice; cited from earlier work
Orexin 2 Receptor = Orexin 2 Receptor (Homo sapiens, UniProt O43614); conditions: 100 μg/mL test substance, 1 h pre-incubation, then 50 nM orexin-A for 24 hours; HEK293T cells; n=3; FIG. 1
Chain of Orexin 2 Receptor (O43614 whole entry): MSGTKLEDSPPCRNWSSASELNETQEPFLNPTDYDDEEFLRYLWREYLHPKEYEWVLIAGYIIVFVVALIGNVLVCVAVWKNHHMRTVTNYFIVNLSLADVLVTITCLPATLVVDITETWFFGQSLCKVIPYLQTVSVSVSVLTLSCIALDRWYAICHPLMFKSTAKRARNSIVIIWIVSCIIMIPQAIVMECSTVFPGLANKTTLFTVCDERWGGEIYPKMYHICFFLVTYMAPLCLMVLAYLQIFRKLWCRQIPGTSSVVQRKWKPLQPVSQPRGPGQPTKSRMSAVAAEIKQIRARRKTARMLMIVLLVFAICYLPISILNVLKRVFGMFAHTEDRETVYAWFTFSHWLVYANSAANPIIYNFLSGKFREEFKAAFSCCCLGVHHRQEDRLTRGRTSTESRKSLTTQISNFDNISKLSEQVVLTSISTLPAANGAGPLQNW
Procedure: The orexin receptor antagonist activity of a test substance was measured using an accessory to Orexin 2 Receptor Reporter Assay Kit (Cayman Chemical Company).
In this evaluation system, cells that express orexin receptors at cell surfaces are used. Binding of the agonist (orexin) to the orexin receptor causes secretion of secreted alkaline phosphatase (SEAP). Secreted SEAP is reacted with an alkaline phosphatase substrate, and the enzyme activity of SEAP is measured using a luminometer. A substance having orexin receptor antagonist action reduces the enzyme activity.
(1) HEK293T cells were prepared at a concentration of 2.5×10^5 cells/mL using Dulbecco's modified Eagle medium (high glucose content) (Dulbecco's Modified Eagle's Medium-high glucose, with 4500 mg/L glucose, L-glutamine, sodium pyruvate, and sodium bicarbonate, liquid, sterile-filtered, suitable for cell culture) (Sigma-Aldrich) to which fetal bovine serum (FBS) was added to a final concentration of 10%.
(2) The medium containing HEK293T cells prepared in (1) was seeded at 200 μL per well in Orexin 2 Receptor Reverse Transfection Strip Plate.
(3) Incubation was performed at 5% CO2 and 37° C. for 16 hours. […]
(7) The enzyme (SEAP) activity of the supernatant was measured in accordance with a protocol attached to Orexin 2 Receptor Reporter Assay Kit (Cayman Chemical Company). […]

HEK293T cells = assay: WST-8 Cell Proliferation Assay (dehydrogenase activity, cell growth); assay type: cell-based; conditions: 100 μg/mL, HEK293T cells of Example 1; compared to positive and negative control; FIG. 2
Procedure: For the pyrroloquinoline quinone disodium salt-added group in Example 1, WST-8 Cell Proliferation Assay Kit (Cayman Chemical Company) was used to confirm the cell growth after addition of pyrroloquinoline quinone disodium salt. The measurement was performed by a method according to an attached protocol. The dehydrogenase activity is known to be in proportion to the number of live cells. The kit utilizes this principle and measures the dehydrogenase activity released in the medium from the cells.

orexin receptor [2] = conditions: intake of suvorexant; cited from earlier work
orexin receptor [3] = conditions: during glucose tolerance test; cited from earlier work

For `CNC(=O)[C@@H](c1ccccc1)N1CCc2cc(OC)c(OC)cc2[C@@H]1CCc1ccc(C(F)(F)F)cc1` [almorexant], the “amyloid β level and amyloid plaque formation” value (orexin receptor [1]) is listed as “decrease in amyloid β level and in amyloid plaque formation”.
With `O=C(O)c1cc(C(=O)O)c2c(n1)C(=O)C(=O)c1cc(C(=O)O)[nH]c1-2.[Na].[Na]` [pyrroloquinoline quinone disodium salt] the “orexin receptor antagonist action (SEAP enzyme activity relative to negative control)” value (Orexin 2 Receptor) was “orexin receptor antagonist action equivalent to that exerted by addition of 1 μM suvorexant” and the “number of cells (dehydrogenase activity relative to negative control)” value (HEK293T cells) was “did not show a decrease in the number of cells”.
For `Cc1ccc(-n2nccn2)c(C(=O)N2CCN(c3nc4cc(Cl)ccc4o3)CC[C@H]2C)c1` [suvorexant], the “sleep latency, wake after sleep onset, total sleep duration, sleep efficiency” value (orexin receptor [2]) is listed as “decreased sleep latency and objective wake after sleep onset and have increased total sleep duration and sleep efficiency” and the “rise in blood sugar levels” value (orexin receptor [3]) is listed as “suppressing the rise in blood sugar levels”.
